Where two headings read alike, the source gives them in different places.
Legend:
[1] = system: NFF, neonatal foreskin fibroblasts; assay: Cell survival assay (clonogenic survival, SRB), normal cells; assay type: cell-based, human; details: SRB
Method: (§1) The cytotoxicities of the compounds of the invention were determined by clonogenic survival of human cancer cells (MM96L, melanoma) and human normal cells (NFF, neonatal foreskin fibroblasts). Cells were incubated with the compounds at various concentrations of compound (0.01-10 μg/mL) for 24 hours, washed, and then grown for a further four days in the absence of hydroxamic acid before determining cell survival by cell count. The final readout involved staining with sulforhodamine B (SRB), a cost-effective method amenable to automation and high throughput analysis. At the technical level, “cell sensitivity” is often inferred from short term (1-2 day) observations such as apoptosis, which may not be a satisfactory model of clonogenic survival.
(§2) Cell Lines and Culture Medium. All cell lines used in this study have been described previously (Parsons et al., 1986; Todaro et al., 1980; Glenn et al., 2004). All cell lines were cultured in 10% heat-inactivated foetal calf serum (CSL, Australia) in RPMI 1640 medium supplemented with 100 U/mL penicillin, 100 μg/mL streptomycin, and 3 mM HEPES at 5% CO2, 99% humidity at 37° C. Primary human fibroblasts were obtained from neonatal foreskins and cultured in the above medium. Routine mycoplasma tests were performed using Hoechst stain^i and were always negative.
(§3) Cell Survival Assay. Cells were plated into 96-well microtitre plates at 5×10^3 cells/well, and allowed to adhere overnight. Test compounds were added to culture medium at the indicated concentrations, and plates incubated in the above conditions for 24 hours. Following this incubation period, compounds and media were removed, and replaced with fresh culture medium. Cells were then grown for a further 72 hours before assay using sulforhodamine B (SRB; Sigma, St. Louis, Mo.) as previously described. Briefly, the culture medium was removed from the 96-well microtitre plates and the plates washed twice with phosphate buffered saline (PBS), before the cells were fixed with methylated spirits for 15 minutes. The plates were then rinsed with tap water and the fixed cells stained with 50 μL/well of SRB solution (0.4% sulforhodamine B (w/v) in 1% (v/v) acetic acid) over a period of 1 hour. The SRB solution was then removed from the wells and the plates rapidly washed two times with 1% (v/v) acetic acid. Protein bound dye was then solubilised with the addition of 100 μL of 10 mM unbuffered Tris, and incubated for 15 min at 25° C. Plates were then read at 564 nm on a VERSA max tunable microplate reader (Molecular Devices, Sunnyvale, Calif.).

MM96L melanoma cells = assay: Cell survival assay (clonogenic survival, SRB); assay type: cell-based, human; details: for IC50: SRB; for SI (Selectivity Index = IC50 (NFF)/IC50 (MM96L)): NFF vs MM96L
Method: as §1, §2, §3

[2] = Table 5, 24 hours with compound, further growth, read-out: IC50 NFF
[3] = Table 5, 24 hours with compound, further growth, read-out: IC50 MM96L
[4] = Table 5, Selectivity Index = IC50 (NFF)/IC50 (MM96L)
[5] = Homo sapiens, Fibroblast, 24 h, Table 6, 24 hours with compound, further growth, read-out: IC50 (μM) NFF
[6] = Homo sapiens, MM96L, 24 h, Table 6, 24 hours with compound, further growth, read-out: IC50 (μM) MM96L
[7] = Table 6, IC50 (NFF)/IC50 (MM96L)
[8] = Table 8, 24 hours with compound, further growth, read-out: IC50 (μM) NFF
[9] = Table 8, 24 hours with compound, further growth, read-out: IC50 (μM) MM96
[10] = Table 8, IC50 (NFF)/IC50 (MM96L)
[11] = Homo sapiens, Fibroblast, NFF normal fibroblasts, 24 h with compound, further 72 h growth, read-out: IC50 (uM) NFF
[12] = Homo sapiens, MM96L, MM96L melanoma, 24 h with compound, further 72 h growth, read-out: IC50 (uM) MM96L
[13] = NFF normal fibroblasts, 24 h with compound, further 72 h growth, read-out: IC50 (uM) NFF
[14] = MM96L melanoma, 24 h with compound, further 72 h growth, read-out: IC50 (uM) MM96L

In the case of `O=C(CCCSC[C@H](NC(=O)CCCc1ccccc1)C(=O)NCc1ccccc1)NO` [Example 49], the IC50 [1, 2] is reported as 11 ± 2 µM, the IC50 (MM96L melanoma cells; [3]) is reported as 5 ± 1 µM and the Selectivity (MM96L melanoma cells; [4]) is reported as 2.2.
Work on `CN(C)c1ccc(C(=O)N[C@@H](CSCCCC(=O)NO)C(=O)Nc2cccc3scnc23)cc1` [Example 69] yielded an IC50 [1, 5] of 3.3 ± 0.3 µM, an IC50 (MM96L melanoma cells; [6]) of 1.3 ± 0.1 µM and a Selectivity (MM96L melanoma cells; [7]) of 2.5.
`CN(C)c1ccc(C(=O)N[C@@H](CSCCCC(=O)NO)C(=O)NCc2ccccc2)cc1` [Example 73] was tested, and the IC50 [1, 5] was 0.35 ± 0.07 µM, the IC50 (MM96L melanoma cells; [6]) was 0.14 ± 0.09 µM and the Selectivity (MM96L melanoma cells; [7]) was 2.5.
`O=C(CCCSC[C@H](NC(=O)C(c1ccccc1)c1ccccc1)C(=O)NCc1ccccc1)NO` [Example 43] gave an IC50 [1, 2] of 22 ± 2 µM, an IC50 (MM96L melanoma cells; [3]) of 9.3 ± 0.3 µM and a Selectivity (MM96L melanoma cells; [4]) of 2.4.
With `O=C(CCCSC[C@H](NC(=O)C1CCCC1)C(=O)NCc1ccccc1)NO` [Example 54] the IC50 [1, 2] was greater than 100 µM, the IC50 (MM96L melanoma cells; [3]) was 21 ± 3 µM and the Selectivity (MM96L melanoma cells; [4]) was greater than 5.
In the case of `CN(C)c1ccc(C(=O)N[C@@H](CSCCCC(=O)NO)C(=O)NCc2ccc(C(=O)NCc3ccccc3)cc2)cc1` [Example 106], the IC50 [1, 8] is reported as 11.8 µM, the IC50 (MM96L melanoma cells; [9]) is reported as 1.18 µM and the Selectivity (MM96L melanoma cells; [10]) is reported as 10.0.
`O=C(CCCSC[C@H](NC(=O)c1cnccn1)C(=O)NCc1ccccc1)NO` [Example 35] gave an IC50 [1, 2] of 62 ± 5 µM, an IC50 (MM96L melanoma cells; [3]) of 19 ± 2 µM and a Selectivity (MM96L melanoma cells; [4]) of 3.3.
Work on `CN(C)c1ccc(C(=O)N[C@@H](CSCCCC(=O)NO)C(=O)Nc2ccncc2)cc1` [Example 77] yielded an IC50 [1, 5] of 7.2 ± 0.8 µM, an IC50 (MM96L melanoma cells; [6]) of 1.8 ± 0.2 µM and a Selectivity (MM96L melanoma cells; [7]) of 4.1.
`CN(C)c1ccc(C(=O)N[C@@H](CCCCCC(=O)NO)C(=O)NC2(Cc3ccccc3)CCCC2)cc1` [Example 128] was tested, and the IC50 [1, 11] was 3 ± 0.3 µM, the IC50 (MM96L melanoma cells; [12]) was 0.9 ± 0.2 µM and the “SI (Selectivity Index = IC50 (NFF)/IC50 (MM96L))” value (MM96L melanoma cells) was 3.5.
`CN(C)c1ccc(C(=O)N[C@@H](CSCCCC(=O)NO)C(=O)NC23CC4CC(CC(C4)C2)C3)cc1` [Example 92] showed an IC50 [1, 5] of 7.1 ± 0.5 µM, an IC50 (MM96L melanoma cells; [6]) of 1.48 ± 0.08 µM and a Selectivity (MM96L melanoma cells; [7]) of 4.8.
For `O=C(CCCCC[C@H](NC(=O)c1ccc(Br)cc1)C(=O)NCc1ccncc1)NO` [Example 158], the IC50 [1, 11] was 5.24 µM, the IC50 (MM96L melanoma cells; [12]) was 0.837 µM and the “SI (Selectivity Index = IC50 (NFF)/IC50 (MM96L))” value (MM96L melanoma cells) was 6.3.
With `O=C(CCCCC[C@H](NC(=O)c1ccc([N+](=O)[O-])cc1)C(=O)NCc1ccccc1)NO` (racemic) [Example 135] the IC50 [1, 11] was 9 ± 2 µM, the IC50 (MM96L melanoma cells; [12]) was 6 ± 1 µM and the “SI (Selectivity Index = IC50 (NFF)/IC50 (MM96L))” value (MM96L melanoma cells) was 1.5.
`O=C(CCCCC[C@H](NC(=O)c1cccnc1)C(=O)NCc1ccccc1)NO` (racemic) [Example 134] was tested, and the IC50 [1, 11] was 24 ± 8 µM, the IC50 (MM96L melanoma cells; [12]) was 9.5 ± 0.8 µM and the “SI (Selectivity Index = IC50 (NFF)/IC50 (MM96L))” value (MM96L melanoma cells) was 2.5.
In the case of `CN(C)c1ccc(C(=O)N[C@@H](CSCCCC(=O)NO)C(=O)NCc2cccnc2)cc1` [Example 81], the IC50 [1, 5] is reported as 8.8 ± 0.5 µM, the IC50 (MM96L melanoma cells; [6]) is reported as 1.49 ± 0.09 µM and the Selectivity (MM96L melanoma cells; [7]) is reported as 5.9.
For `COC(=O)c1ccc(NC(=O)[C@H](CSCCCC(=O)NO)NC(=O)c2ccc(N(C)C)cc2)cc1` [Example 63], the IC50 [1, 5] was 2.8 ± 0.1 µM and the IC50 (MM96L melanoma cells; [6]) was 0.96 ± 0.07 µM.
`O=C(/C=C/c1ccccc1)N[C@@H](CCCCCC(=O)NO)C(=O)NCc1ccccc1` [Example 153] was tested, and the IC50 [1, 13] was 0.99 µM, the IC50 (MM96L melanoma cells; [14]) was 0.731 µM and the “SI (Selectivity Index = IC50 (NFF)/IC50 (MM96L))” value (MM96L melanoma cells) was 1.4.
`CC(C)CCNC(=O)C(CCCCCC(=O)NO)NC(=O)c1ccco1` (racemic) [Example 144] was tested, and the IC50 [1, 13] was 4.4 ± 0.5 µM, the IC50 (MM96L melanoma cells; [14]) was 1.5 ± 0.2 µM and the “SI (Selectivity Index = IC50 (NFF)/IC50 (MM96L))” value (MM96L melanoma cells) was 2.9.
For `Cc1ccnc(NC(=O)[C@H](CSCCCC(=O)NO)NC(=O)c2ccc(N(C)C)cc2)c1` [Example 79], the IC50 [1, 5] was 11.2 ± 0.7 µM, the IC50 (MM96L melanoma cells; [6]) was 1.12 ± 0.06 µM and the Selectivity (MM96L melanoma cells; [7]) was 10.0.
For `CN(C)c1ccc(C(=O)N[C@@H](CSCCCC(=O)NO)C(=O)NCc2ccc(C(=O)NCc3nc4ccccc4[nH]3)cc2)cc1` [Example 113], the IC50 [1, 8] was 15.8 µM, the IC50 (MM96L melanoma cells; [9]) was 3.96 µM and the Selectivity (MM96L melanoma cells; [10]) was 4.0.
